pIC50: −log10 of the molar value. Structures can show the parent of a compound that is named as a salt. Where two headings read alike, the source gives them in different places. Numbered stars: 1 amine (or outer) side, 2 acyl side, 3 side chain; on linkers, the order of the positions; unused ones are H or OH. Bridge positions count the residues as written; N and C are the ends. Square brackets hold non-standard residues; d marks the D form. Peptide text beside a SMILES is read from it. I, II: the chains in the order shown. Actinocin(9to1) = Cc1c2oc3c(C)ccc(C(=O)[*:1])c3nc-2c(C(=O)[*:2])c(N)c1=O; NMeV = CN[C@H](C(=O)O)C(C)C; Sar = CNCC(=O)O
System: SARS-CoV-2
Test: microbe, parasite or virus in culture
Settings: Severe acute respiratory syndrome coronavirus 2, Caco-2, 48 h; for inhibition at 10 µM: read-out: % Inh. (% Inhibition of SARS-CoV-2); for IC50: read-out: pIC50 (converted)

| SMILES | inhibition at 10 µM | pIC50 | IC50 |
| --- | --- | --- | --- |
| CCCn1c(=O)c2[nH]c(-c3ccccc3)nc2n(CCC)c1=O [1,3-dipropyl-8-phenylxanthine] | 57.2% |  |  |
| COc1cc(CN2CCN(c3ccc(F)cc3)CC2)cc(OC)c1OC [1-(4-fluorophenyl)-4-(3,4,5-trimethoxybenzyl)piperazine] | 67.3% |  |  |
| OC[C@H]1O[C@@H](n2cnc3c(NC4CCCC4)nc(Cl)nc32)[C@H](O)[C@@H]1O [2-chloro-N6-cyclopentyladenosine] | 57.7% |  |  |
| Nc1nc(Cl)nc2c1ncn2[C@@H]1O[C@H](CO)[C@@H](O)[C@H]1O [2-chloroadenosine] | 72.5% |  |  |
| O=C(NCc1ccncc1)C12CC3CC(C1)CC(c1ccc(Cl)cc1)(C3)C2 [ABC294640] | 81.4% | 4.42 | 38 µM |
| CN(C)CC[C@H](CSc1ccccc1)Nc1ccc(S(=O)(=O)NC(=O)c2ccc(N3CCN(Cc4ccccc4-c4ccc(Cl)cc4)CC3)cc2)cc1[N+](=O)[O-] [ABT-737] | 63.1% |  |  |
| COc1ccc(S(=O)(=O)N2CCC[C@H]2C(=O)Nc2cc(C)cc(C)c2)cc1 [ACT-462206] | 53.8% |  |  |
| CCN1CCN(Cc2ccc(-c3cc4c(N[C@H](C)c5ccccc5)ncnc4[nH]3)cc2)CC1 [AEE788] | 90.9% |  |  |
| CC(=O)NC(Cc1ccccc1)C(=O)O (stereo not drawn) [AFALANINE] | 62.1% |  |  |
| Cn1c(NC[C@@H](N)Cc2ccccc2)nc(-c2ccncc2)c(-c2ccc3ccccc3c2)c1=O [AMG-548] | 89% |  |  |
| Nc1c2ccccc2nc2ccccc12 [AMINACRINE] | 64.1% |  |  |
| CCN(CC)Cc1cc(Nc2ccnc3cc(Cl)ccc23)ccc1O [AMODIAQUINE DIHYDROCHLORIDE] | 78.8% |  |  |
| COc1ccc(-n2nc(C(N)=O)c3c2C(=O)N(c2ccc(N4CCCCC4=O)cc2)CC3)cc1 [APIXABAN] | 78% |  |  |
| COc1cc(N2CCC(N3CCN(C)CC3)CC2)ccc1Nc1ncnc(Nc2ccccc2S(=O)(=O)C(C)C)n1 [ASP3026] | 62.2% |  |  |
| Cc1ccc(Oc2ccccc2-c2csc(N=C3NCCCN3)n2)c(C)c1 [Abafungin] | 92.9% |  |  |
| CC(=O)CC(c1ccc([N+](=O)[O-])cc1)c1c(O)c2ccccc2oc1=O (stereo not drawn) [Acenocoumarin] | 64.2% |  |  |
| Cc1ccccc1-n1c(CF)nc2ccc(N)cc2c1=O [Afloqualone] | 50.1% |  |  |
| CCCCC(CC)CNC(=N)NC(=N)NCCCCCCNC(=N)NC(=N)NCC(CC)CCCC (stereo not drawn) [Alexidine dihydrochloride] | 76.3% |  |  |
| N#CC1(c2ccc(NC(=O)c3cccnc3NCc3ccncc3)cc2)CCCC1 [Apatinib mesylate] | 70.9% |  |  |
| Cc1c(CN2CCN(C(=O)[C@H](C)O)CC2)sc2c(N3CCOCC3)nc(-c3cnc(N)nc3)nc12 [Apitolisib (GDC-0980, RG7422), Apitolisib] | 102% |  |  |
| C[N+](C)(C)CC(=O)O [BETAINE HYDROCHLORIDE] | 95.7% |  |  |
| C[C@H]1C[C@H]2[C@@H]3CCC4=CC(=O)C=C[C@]4(C)[C@@]3(F)[C@@H](O)C[C@]2(C)[C@@]1(O)C(=O)CO [BETAMETHASONE] | 50.6% |  |  |

| SMILES | inhibition at 10 µM | pIC50 | IC50 |
| --- | --- | --- | --- |
| CN1CCC(Nc2ncc3ncnc(Nc4ccc(F)c(Cl)c4)c3n2)CC1 [BIBX-1382] | 79.3% |  |  |
| c1ccc(-c2ccc(C(c3ccccc3)n3ccnc3)cc2)cc1 (stereo not drawn) [BIFONAZOLE] | 70.8% |  |  |
| CCCCNc1cc(C(=O)O)cc(S(N)(=O)=O)c1Oc1ccccc1 [BUMETANIDE] | 87.5% |  |  |
| Clc1ccc(CCC(Cn2ccnc2)Sc2c(Cl)cccc2Cl)cc1 (stereo not drawn) [BUTOCONAZOLE] | 70.6% |  |  |
| CC1(C)CC[C@]2(C(=O)O)CC[C@]3(C)[C@H](C(=O)C=C4[C@@]5(C)C=C(C#N)C(=O)C(C)(C)[C@@H]5CC[C@]43C)[C@@H]2C1 [Bardoxolone] | 66% |  |  |
| COC(=O)C1=C(C)NC(C)=C(C(=O)O[C@H]2CCN(Cc3ccccc3)C2)[C@H]1c1cccc([N+](=O)[O-])c1 [Barnidipine HCl] | 83.5% | 4.61 | 24.5 µM |
| Cc1nc(C#Cc2ccnc(Cl)c2)c(C)n1-c1ccc(F)cc1 [Basimglurant] |  | 4.60 | 25.1 µM |
| N#CC(c1ccnc(OCc2ccc(CN3CCOCC3)cc2)n1)c1nc2ccccc2s1 (stereo not drawn) [Bentamapimod] | 78.4% | 5.29 | 5.13 µM |
| CCCCCCCCCCCCCCCC[N+](C)(C)Cc1ccccc1 [Benzyldimethylhexadecylammonium chloride hydrate] | 57% |  |  |
| COc1ccc(CCNCC(O)COc2cccc(C)c2)cc1OC (stereo not drawn) [Bevantolol HCl] | 77.1% |  |  |
| Nc1cc(C(F)(F)F)c(-c2nc(N3CCOCC3)nc(N3CCOCC3)n2)cn1 [Bimiralisib] | 97.2% |  |  |
| Cc1c(-c2ccc(-c3ccccc3F)cc2)nc2ccc(F)cc2c1C(=O)O [Brequinar sodium salt hydrate] | 61% |  |  |
| CCN1C(=O)CNc2ncc(-c3ccc(-c4nc[nH]n4)nc3C)nc21 [CC-115] | 96.6% |  |  |
| [H]/N=C(\N/C(=N/[H])NCCCCCCNC(=N)NC(=N)Nc1ccc(Cl)cc1)Nc1ccc(Cl)cc1 [CHLORHEXIDINE DIHYDROCHLORIDE] | 86.4% |  |  |
| CN(C)CC/C=C1/c2ccccc2Sc2ccc(Cl)cc21 [CHLORPROTHIXENE HYDROCHLORIDE] | 55.6% |  |  |
| Cc1cc(C(C#N)c2ccc(Cl)cc2)c(Cl)cc1NC(=O)c1cc(I)cc(I)c1O (stereo not drawn) [CLOSANTEL] | 80% |  |  |
| Clc1ccccc1C(c1ccccc1)(c1ccccc1)n1ccnc1 [CLOTRIMAZOLE] | 81.7% |  |  |
| C[C@@H]([C@@H](O)c1ccc(O)cc1)N1CCC(O)(c2ccccc2)CC1 [CP 101606] | 54.3% |  |  |
| CCC[C@H](Nc1nc(-c2ccc(NC(=O)NCC)c(OC)c2)ncc1C)c1cccnc1 [CYT997] | 58.6% |  |  |
| NCCC(=O)N[C@@H](Cc1cnc[nH]1)C(=O)O [Carnosine] | 94.3% |  |  |
| CC(=O)OCC1=C(C(=O)O)N2C(=O)[C@@H](NC(=O)Cc3cccs3)[C@H]2SC1 [Cephalothin] | 53.7% |  |  |
| Cc1cc(Nc2ncc(Cl)c(Nc3ccccc3S(=O)(=O)C(C)C)n2)c(OC(C)C)cc1C1CCNCC1 [Ceritinib] | 60% |  |  |

| SMILES | inhibition at 10 µM | pIC50 | IC50 |
| --- | --- | --- | --- |
| CNCCCOc1cc(F)c(-c2c(Cl)nc3ncnn3c2N[C@@H](C)C(F)(F)F)c(F)c1 [Cevipabulin] | 53.6% |  |  |
| O=C(c1ccc(F)c(F)c1Nc1ccc(I)cc1F)N1CC(O)([C@@H]2CCCCN2)C1 [Cobimetinib] | 61.6% |  |  |
| Cc1c2oc3c(C)ccc(C(=O)N[C@@H]4C(=O)N[C@H](C(C)C)C(=O)N5CCC[C@H]5C(=O)N(C)CC(=O)N(C)[C@@H](C(C)C)C(=O)O[C@@H]4C)c3nc-2c(C(=O)N[C@@H]2C(=O)N[C@H](C(C)C)C(=O)N3CCC[C@H]3C(=O)N(C)CC(=O)N(C)[C@@H](C(C)C)C(=O)O[C@@H]2C)c(N)c1=O [DACTINOMYCIN] (I: T[dV]P[Sar][NMeV] / II: T[dV]P[Sar][NMeV]; ester I:1-I:C, II:1-II:C; linker I:N-II:N via Actinocin(9to1)) | 74.6% |  |  |
| CNC(=O)c1cc(Oc2ccc(NC(=O)Nc3cc(C(C)(C)C)nn3-c3ccc4ncccc4c3)c(F)c2)ccn1 [DCC-2036 (Rebastinib), Rebastinib] | 70% |  |  |
| Cc1cc(N)c2ccccc2[n+]1CCCCCCCCCC[n+]1c(C)cc(N)c2ccccc21 [DEQUALINIUM CHLORIDE] | 65.6% |  |  |
| C[C@H]1O[C@@H](O[C@H]2[C@@H](O)C[C@H](O[C@H]3[C@@H](O)C[C@H](O[C@H]4CC[C@@]5(C)[C@H](CC[C@@H]6[C@@H]5C[C@@H](O)[C@]5(C)[C@@H](C7=CC(=O)OC7)CC[C@]65O)C4)O[C@@H]3C)O[C@@H]2C)C[C@H](O)[C@@H]1O [DIGOXIN] | 70.6% |  |  |
| COc1cc2ncnc(Nc3ccc(F)c(Cl)c3)c2cc1NC(=O)/C=C/CN1CCCCC1 [Dacomitinib (PF299804, PF-00299804), Dacomitinib] | 85.5% |  |  |
| Cn1c(=O)n(-c2ccc(C(C)(C)C#N)cc2)c2c3cc(-c4cnc5ccccc5c4)ccc3ncc21 [Dactolisib (BEZ235, NVP-BEZ235), Dactolisib] | 91.8% |  |  |
| Cc1nc(Nc2ncc(C(=O)Nc3c(C)cccc3Cl)s2)cc(N2CCN(CCO)CC2)n1 [Dasatinib] | 52.7% |  |  |
| O=C(O)c1ccc(OCCn2ccnc2)cc1 [Dazoxiben] | 56% |  |  |
| C[C@]12CC[C@H](O)C[C@H]1CC[C@@H]1[C@@H]2C[C@@H](O)[C@]2(C)[C@@H](C3=CC(=O)OC3)CC[C@]12O [Digoxigenin] | 66.8% |  |  |
| CCc1cnn2c(NCc3ccc[n+]([O-])c3)cc(N3CCCC[C@H]3CCO)nc12 [Dinaciclib (SCH727965), Dinaciclib] | 79.4% |  |  |
| Clc1ccc(COC(Cn2ccnc2)c2ccc(Cl)cc2Cl)cc1 (stereo not drawn) [ECONAZOLE NITRATE] | 87.3% |  |  |
| CS[C@H]1SC[C@H]2C(=O)N(C)[C@@H](C(C)C)C(=O)OC[C@@H](NC(=O)c3cnc4ccccc4n3)C(=O)N[C@@H](C)C(=O)N(C)[C@@H]1C(=O)N(C)[C@@H](C(C)C)C(=O)OC[C@@H](NC(=O)c1cnc3ccccc3n1)C(=O)N[C@@H](C)C(=O)N2C [Echinomycin] | 77.5% |  |  |
| CN1CCN(c2ccc(C(=O)Nc3n[nH]c4ccc(Cc5cc(F)cc(F)c5)cc34)c(NC3CCOCC3)c2)CC1 [Entrectinib (RXDX-101), Entrectinib] | 70% |  |  |
| CCNC1=Nc2ccc(Cl)cc2C(C)(c2ccccc2)O1 (stereo not drawn) [Etifoxine (hydrochloride)] |  | 5.03 | 9.33 µM |
| Cc1cc(C)c2c(c1)[C@@H](N(Cc1cc(C(F)(F)F)cc(C(F)(F)F)c1)c1nnn(C)n1)CCCN2C[C@H]1CC[C@H](C(=O)O)CC1 [Evacetrapib (LY2484595), Evacetrapib] | 94.9% | 4.57 | 26.9 µM |
| CCOC(=O)C1=C(C)NC(C)=C(C(=O)OC)C1c1cccc(Cl)c1Cl (stereo not drawn) [FELODIPINE] | 51.2% |  |  |
| O=C(/C=C/c1cccnc1)NCCCCC1CCN(C(=O)c2ccccc2)CC1 [FK-866] | 50.9% |  |  |
| Clc1ccc(C(Cn2ccnc2)OCc2ccc(Sc3ccccc3)cc2)c(Cl)c1 (stereo not drawn) [Fenticonazole nitrate] | 105% |  |  |
| c1ccc(OCc2ccc(CCCN3CCOCC3)cc2)cc1 [Fomocain] | 61.1% |  |  |

From US20230126310A1 (priority 2020, published 2023)
